Series [1] relates to BIP level in K562 cells. Kind of series: BIP immunoblot in mammalian cells. In kind it is cell-based, human. The settings on record: 20 μM, 28 hour. As to the method: Immunoblot of lysates prepared from human leukemia cells (K562) using an antibody to BIP after 28 hour exposure to tunicamycin (1 μg ml^−1), gepinacin (20 μM) or solvent vehicle (DMSO, 0.1%). Betaactin was blotted as a loading control.

In series [2] the test system is amphotericin B-resistant or fluconazole-resistant C. albicans. Kind of series: Co-culture of mammalian cells and C. albicans: fungal proliferation. In kind it is cell-based. The settings on record: 40 μM, 24 hours, serum-containing medium. The protocol: For co-culture experiments, confluent layers of NIH 3T3 cells were established in 6-well plates. The following day, the medium was replaced with RPMI1640+10% FBS containing the amphotericin-resistant strain CaAmphR at […] colony forming units per ml and 40 μM gepinacin or an equivalent amount of DMSO. Co-cultures were incubated for 24 hours at 37° C. in a micro-isolator box. Images were acquired on a Nikon Eclipse TS100 microscope at 40×.
Having determined the target of gepinacin in fungi, gepinacin's effect on the human ortholog of Gwt1, PIG-W, was examined. To determine if gepinacin remained active under mammalian cell culture conditions cultured fungi were cultured (either an amphotericin B-resistant (FIG. 3a) or fluconazole-resistant (data not shown) isolate of C. albicans) and mammalian cells together with 40 μM gepinacin. […] PIG-W (and GPI anchor biosynthesis) is not essential for mammalian cells in culture.

Series [3] relates to S. cerevisiae strains with graded levels of Gwt1 expression. Kind of series: Antifungal susceptibility testing of strains with graded GWT1 copy number. In kind it is cell-based. The source says: (A) Anti-fungal susceptibility testing of S. cerevisiae strains with graded levels of Gwt1 expression treated with gepinacin. Wild type diploids (Wt) or diploids with one copy of GWT1 deleted (gwt1/GWT1) were transformed with low copy (CEN) plasmids encoding GWT1 or GFP (as a control). (B) Schematic of Gwt1 protein function in cells. Glucosamine (shown as a black circle) phosphatidyl inositol (GlcN-PI) is acylated (orange zigzag) by Gwt1 to become GlcN-(acyl)PI.
Anti-fungal susceptibility testing of wild type diploids (Wt) or diploids with one copy of GWT1 deleted (gwt1Δ/GWT1) transformed with high copy (2 micron) plasmids containing GWT1 or GFP (as a control). The strains were treated with gepinacin for 48 hours and the growth was monitored by measuring the optical density at 600 nm (OD600). The results are expressed as a fraction of the OD600 measured in the absence of gepinacin.
To determine the mechanism responsible for the antifungal activity of the compound, the powerful genetic tools available in the model fungal organism S. cerevisiae were utilized. Both an arrayed haploid over-expression library and a pooled heterozygous deletion library were screened for enhancement or suppression of toxicity. […] With each strain expressing one open reading frame (ORF), this library covered approximately 90% of the yeast genome. […]

The subject of series [4] is RAW264.7 macrophages co-cultured with treated C. albicans. Kind of series: Macrophage stimulation and TNFα measurement (ELISA). In kind it is cell-based, mouse. The settings on record: 2 hours co-culture. As to the method: Cultures of C. albicans Sc5314 cells were drug treated as described for β-glucan staining. After overnight incubation, cultures were washed extensively, counted, and added to cultures of the mouse macrophage cell line RAW264.7 at a macrophage:yeast ratio of 1:2.5 in the continued presence of drug. After 2 hours supernatants were harvested and TNFα concentration measured by ELISA using a kit according to manufacturer's instructions (DY410, R&D Systems).

Series [5] deals with Gas1 and CPY maturation. Kind of series: Protein trafficking analysis (immunoblot of reporter proteins). In kind it is cell-based, S. cerevisiae. The settings on record: 10 μM, 1 hour. As to the method: (A) Immunoblots of lysates prepared from S. cerevisiae treated with gepinacin showing GPI-anchor-selective impairment of protein maturation. The unprocessed (u), precursor (p), and mature (m) forms of the reporter proteins are indicated. The identity of the tagged reporter proteins (top of panel) and the antibodies used for their detection (bottom of panel) are also indicated. Treatment conditions are DMSO (0.05%), gepinacin (GPN, 10 μM) or tunicamycin (Tun, 10 μM). The same lysate was used for both blots. […] GFP expression was monitored by flow cytometry. (C) Anti-fungal susceptibility testing of strains deleted for IRE1 (activator of the UPR) or HAC1 (effector of the UPR) showing their increased sensitivity to gepinacin.
HA-tagged GAS1 was expressed in strain BY4741 CPY-GFP (Yeast GFP collection (Huh, et al. (2003) Nature 425, 686-691) under control of its own promoter using plasmid pCM-HA-GAS1. This construct was created as previously reported except in a gateway plasmid backbone (Fujita, et al. (2006) Mol Biol Cell 17, 834-850). To assess effects on trafficking, strains were incubated for 1 hour at 30° C. with test compounds. Total cellular protein (5 μg) was separated by electrophoresis (Invitrogen 8% gels) and transferred to nitrocellulose membranes. Blots were hybridized with antibodies against HA (Covance), GFP (Roche), or CPY (Invitrogen). Sizes for the various post-translationally modified products of Gas1HA2 and CPY have been previously reported (Fujita, et al. (2006) Mol Biol Cell 17, 834-850). CPY-GFP was used to facilitate discrimination of CPY processing steps because GFP is cleaved from CPY in the yeast vacuole. The experiment, however, was also performed with untagged CPY with the same results.

Consider `COc1ccc(NC(=O)COc2cccc(OCC(C)C)c2)cc1` [gepinacin], for which the “ER function monitored by induction of BIP” value in series [1] is listed as “did not perturb ER function”. The “fungal proliferation in co-culture” value in series [2] is listed as “profound inhibition of proliferation”. Besides, in series [3], the “toxicity versus GWT1 copy number” value is “inversely correlated with GWT1 copy number”. Moreover, in series [4], the “TNFα secretion by macrophages” value was “more than doubled”. Also, in series [5], the “CPY (not GPI-anchored) processing” value is recorded as “identical” and the “Gas1 (GPI-anchored) maturation: mature versus precursor form” value is “inverted”.

The record behind these values is patent publication US9505735B2, “Compounds for treating infectious diseases” (Whitehead Institute for Biomedical Research, priority 2012, dated 2016).
